This note sets out measurements from publication PMC5818615, “Use of HuH6 and other human-derived hepatoma lines for the detection of genotoxins: a new hope for laboratory animals?” (Archives of Toxicology, 2017).

One series relates to HepaRG cells. As for the experimental part:
(§1) The SCGE experiments were conducted as described in an international guideline (Tice et al. [2000]). Reagents for the assays (lysis solution and alkaline electrophoresis buffer) and agarose-coated slides were prepared according to Collins and Dusinska ([2009]).
(§2) Briefly, cells were sub-cultured in 1.0 ml medium in 24–well tissue-culture plates (Sarstedt Inc., Newton, NC, USA). After 24 h, the media were changed and the cells exposed to different concentrations of the test compounds or to the solvent controls (PBS or DMSO). […] To terminate the treatment, the cells were washed twice with PBS (1.0 ml), trypsinized (100 µl T/E per well, 4 min) and then resuspended in 400 µl culture medium containing FBS. Subsequently, the suspensions were transferred to Eppendorf tubes and centrifuged (200g, 5 min). Cell pellets were resuspended in cold PBS.
(§3) In all experiments, acute toxic effects were determined with a CASY® Cell Counter and Analyzer System (Schärfe-System GmbH, Reutlingen, Germany) (Lindl et al. [2005]). SCGE assays were only performed when the viability of the cultures was ≥ 70% (Koppen et al. [2017]). Per experimental point, two cultures were set up in parallel and from each one slide with two separate gels (30,000 cells/gel) was prepared. After unwinding (40 min, pH > 13) and electrophoresis (30 min, 0.75 V/cm, ~ 300 mA, 4 °C, pH > 13), 50 cells were evaluated per gel (200 cells per experimental point). As an endpoint, we determined the tail intensities (“% DNA in tail”) with a computer-aided system Comet Assay IV (Perceptive Instruments, Bury St Edmunds, UK), which is at present the most widely used parameter (Collins et al. [2008]; Moller [2006]). For each gel, the median of the tail intensity was calculated.

Another series concerns PLC/PRF cells. As for the experimental part: as §1, §2, §3
For series [1], the system named is human derived liver cell lines. The procedure: as §1, §2, §3
A further series relates to HepG2 cells. As for the experimental part: as §1, §2, §3
The next series relates to HuH7 cells. As for the experimental part:
as §1, §2, §3

The next series deals with SNU-449 cells. The procedure: as §1, §2, §3
The next series relates to SK-Hep1 cells. As for the experimental part:
as §1, §2, §3

The test system of a further series is SNU-398 cells. As for the experimental part:
as §1, §2, §3

For the next series, the system named is HuH6 cells. The procedure:
as §1, §2, §3

Another series deals with Hep3B cells. As for the experimental part: as §1, §2, §3
A further series relates to HCC 1.2 cells. As for the experimental part:
as §1, §2, §3

A further series concerns WRL68 cells. As for the experimental part:
as §1, §2, §3

Marks after values point to notes of the source that are not given here.

Consider `OO` [H2O2, hydrogen peroxide], for which the “Sensitivity towards H2O2-induced DNA damage” value in the series on HepaRG cells was “by far less sensitive”.
Regarding aflatoxin B1 [AFB1], the “% DNA in tail” value in the series on PLC/PRF cells is 1.84 ± 1.44 4.57 ± 1.83 4.77 ± 1.75 6.68 ± 2.94 %; with HepG2 cells, 1.02 ± 0.28 0.85 ± 0.41 2.96 ± 0.66* 5.17 ± 1.57 %; with HuH7 cells, 6.29 ± 1.57 2.76 ± 0.52 3.12 ± 0.70 5.81 ± 4.64%; with SNU-449 cells, 2.87 ± 2.05 2.04 ± 2.18 1.14 ± 1.95 3.37 ± 3.14%; in the series on SK-Hep1 cells, 0.60 ± 0.41 1.30 ± 0.37 1.13 ± 0.72 1.24 ± 0.88%; in the series with SNU-398 cells it was 2.50 ± 1.08 2.53 ± 1.68 3.06 ± 0.28 2.83 ± 0.61%. Besides, the “% DNA in tail” value is on record as 1.50 ± 1.09 3.35 ± 2.75 7.20 ± 3.1* 11.9 ± 4.30 % in the series on HuH6 cells; 0.93 ± 0.86 1.35 ± 0.81 4.03 ± 1.93* 4.31 ± 0.92 % with Hep3B cells; 4.16 ± 1.40 11.6 ± 1.50* 9.67 ± 2.17* 7.5 ± 1.76 % with HepaRG cells; 1.38 ± 0.48 3.74 ± 2.69 4.02 ± 1.22 8.75 ± 1.48 % with HCC 1.2 cells; 3.14 ± 1.66 2.32 ± 0.89 1.98 ± 0.41 1.72 ± 0.78% in the series with WRL68 cells. Further, the “Number of the twelve lines sensitive towards the compound” value in series [1] is on record as “Seven out of twelve lines”. Besides, in the series on HepaRG cells, the “Result of SCGE experiments (in words)” value is reported as “detected”.
